Measured values reported in patent US20170027172A1, “USE OF SUBSTITUTE OXO TETRAHYDROQUINOLINE SULFONAMIDES OR SALTS THEREOF FOR RAISING STRESS TOLERANCE OF PLANTS” (BAYER CROPSCIENCE AKTIENGESELLSCHAFT, priority 2014, published 2017).

Columns and labels:
Triticum aestivum = test: Drought stress test on wheat Part D, reduction in damage intensity from fresh weights; type: in vivo; conditions: efficacy = reduction in damage intensity (fresh weight) under drought stress, 25 g/ha, at least three repeats
Source text: Wheat grains were sown in a standardized number in sandy loam soil plastic pots, covered with soil or sand and grown in a greenhouse under good growth conditions. Pots with uneven degrees of emergence were excluded prior to the start of the trial. The treatment with test substances was effected at the early leaf stage (BBCH10-BBCH13). To assure uniform water supply, the potted plants were supplied with water by dam irrigation prior to substance application. The inventive compounds were first formulated as wettable powders (WP) or dissolved in a solvent mixture. The further dilution was effected with water supplemented with 0.2% wetting agent (e.g. agrotin). The finished spray liquor was sprayed onto the green parts of the plant at an equivalent water application rate of 600 l/ha. Substance application was followed immediately by stress treatment of the plants. Drought stress was induced by gradual drying out under the following conditions: “Day”: 14 hours with illumination at 26-30° C. “Night”: 10 hours without illumination at 18-20° C. The duration of the respective stress phases was guided mainly by the condition of the stressed control plants. It was ended (by re-irrigating and transfer to a greenhouse with good growth conditions) as soon as irreversible damage was observed on the stressed control plants. The end of the stress phase was followed by an about 7-day recovery phase, during which the plants were once again kept under good growth conditions in a greenhouse. The exact duration of the recovery phase was variable for reasons related to the trial. At the end of the recovery phase, the fresh weights of the plant parts above ground were determined. By comparison with unstressed control plants which were kept under good growth conditions over the entire duration of the trial, percentage damage intensities were first calculated from the fresh weight values. The reduction in damage intensity resulting from treatment with test substance was then calculated by the following formula: [formula] EF: Efficacy DIs: Damage intensity of the stressed control plants DIt: Damage intensity of the stressed plants treated with test compound The values reported in table D-1 below are results from at least three repeats. BRSNS=Brassica napus TRZAS=Triticum aestivum

Brassica napus = test: Drought stress greenhouse test Part C, visual scoring vs stressed control plants; type: in vivo; conditions: spray application 25 g/ha, efficacy range of 3-4 pots
Description: Seeds of monocotyledonous and dicotyledonous crop plants were sown in sandy loam in plastic or wood-fiber pots, covered with soil or sand and cultivated in a greenhouse under good growth conditions. The trial plants were treated at the early leaf stage (BBCH10-BBCH13). To assure uniform water supply before commencement of stress, the potted plants were supplied with water by dam irrigation prior to substance application. The inventive compounds were first formulated as wettable powders (WP) or dissolved in a solvent mixture. The further dilution was effected with water supplemented with 0.2% wetting agent (e.g. agrotin). The finished spray liquor was sprayed onto the green parts of the plant at an equivalent water application rate of 600 l/ha. Substance application was followed immediately by stress treatment of the plants. For this purpose, the wood-fiber pots were transferred in plastic inserts in order to prevent them from subsequently drying out too quickly. Drought stress was induced by gradual drying out under the following conditions: “Day”: 14 hours with illumination at 26-30° C. […] Once this juncture had been reached, the appearance of the plants treated with test substances was recorded in comparison to the stressed control plants by the following categories: [table] For each substance and dosage, 3-4 pots were treated and evaluated. […]

For `COC(=O)CCN1C(=O)CCc2cc(NS(=O)(=O)Cc3ccc(F)cc3)ccc21` [A51-158], the “EF [%] (TRZAS)” value (Triticum aestivum) was 11% and the “Effect (BRSNS)” value (Brassica napus) was 20-30.
